Reference: ChEMBL document CHEMBL1156829 (Proc Natl Acad Sci U S A, 2008)

How the values were obtained:
Plasmodium falciparum [1] = assay: NOVARTIS: Inhibition of Plasmodium falciparum W2 (drug-resistant) proliferation in erythrocyte-based infection assay; assay type: functional, organism-based; conditions: Plasmodium falciparum, W2; read-out: EC50
Plasmodium falciparum [2] = assay: NOVARTIS: Inhibition of Plasmodium falciparum 3D7 (drug-susceptible) proliferation in erythrocyte-based infection assay; assay type: functional, organism-based; conditions: Plasmodium falciparum, 3D7
[3] = NOVARTIS: Cytotoxicity against human hepatocellular carcinoma cell line (Huh7); assay type: toxicity, cell-based, Huh-7; conditions: Huh7 cells (hepatocellular carcinoma cell line)

SMILES	EC50 (Plasmodium falciparum [1])	EC50 (Plasmodium falciparum [2])	CC50 [3]
OC(CN1CCN(C/C=C/c2ccccc2)CC1)Cn1c2ccc(Br)cc2c2cc(Br)ccc21 (centres undefined)	19.2 nM	589 nM	> 10000 nM
COc1cccc(OCC(=O)NN=C(C)CC(=O)NCc2ccco2)c1	901 nM	> 12500 nM	> 100000 nM
CCOC(=O)C1=C(C)N=c2sc(=Cc3ccccc3OC(C)=O)c(=O)n2C1c1ccc(OC)cc1 (centres undefined)	339 nM	515 nM	> 100000 nM
CCn1c(SCC(=O)Nc2ccc(OC)cc2)nc2ccsc2c1=O	475 nM	> 1250 nM	> 11700 nM
CCOC(=O)c1sc(NC(=O)C(C)Sc2nnc(CNC(=O)c3ccc(OC)cc3)n2-c2ccccc2OC)c(C(=O)OCC)c1C (centres undefined)	439 nM	> 1250 nM	> 10000 nM
O=C(Nc1ccc(C2=NCCN2)cc1)c1cc(Cl)c(C(=O)Nc2ccc(C3=NCCN3)cc2)cc1Cl	308 nM	66 nM	> 10000 nM
COc1ccccc1CN1CCC(S(=O)(=O)c2ccccc2)CC1	52.3 nM	349 nM	1080 nM
Cc1ccc(C(=O)Nc2ccc(-c3nc4ccc(NC(=O)c5ccc(C)cc5)cc4[nH]3)cc2)cc1	> 5780 nM	1570 nM	1890 nM
COc1ccc(Nc2ccccc2NC(=O)c2cccc(N(C)C)c2)cc1	2290 nM	2450 nM	> 100000 nM
NS(=O)(=O)c1ccc(N/C=C/C(=O)c2ccc(Cl)s2)cc1	> 1250 nM	1830 nM	> 8690 nM
COc1ccc(C(NC(=O)c2cccc(OC)c2)c2cc(Cl)c3cccnc3c2O)cc1 (centres undefined)	1380 nM	983 nM	> 100000 nM
COc1cc(COc2cc(N)c(Cl)cc2C(=O)CCC2CCN(CCNS(C)(=O)=O)CC2)cc(OC)c1	< 8.52 nM	> 788 nM	> 13000 nM
Oc1ccccc1Nc1nc(NCc2ccccc2)c2ccccc2n1	1120 nM	277 nM	12500 nM
CCOC(=O)C1=C(c2ccccc2)N=c2sc(=Cc3ccccc3O)c(=O)n2C1c1c(OC)ccc2ccccc12 (centres undefined)	271 nM	2320 nM	> 100000 nM
S=C(NN=Cc1ccccn1)NC1CC2C=CC1C2 (centres undefined)	44.8 nM	38.5 nM	44300 nM
O=C(O)c1ccc(NC(=O)c2ccc(N3C(=O)C4C5C=CC(C5)C4C3=O)cc2)cc1 (centres undefined)	> 11200 nM	> 11200 nM	> 100000 nM
COc1ccc(C2=NN(C(=O)CCC(=O)O)C(c3ccccc3F)C2)cc1 (centres undefined)	606 nM	> 1250 nM	> 10000 nM

SMILES	EC50 (Plasmodium falciparum [1])	EC50 (Plasmodium falciparum [2])	CC50 [3]
O=C(C[n+]1cc(-c2ccc(Cl)cc2)n2c1CCC2)c1ccc(C2CCCCC2)cc1	942 nM	1310 nM	35500 nM
CCC(C(=O)N1CCN(Cc2ccccc2)CC1)c1ccccc1 (centres undefined)	677 nM	6910 nM	> 100000 nM
COc1cc(C(C(=O)NCc2ccccc2)N(C(=O)c2snc(C(N)=O)c2N)c2ccc(C(C)C)cc2)cc(OC)c1OC (centres undefined)	1290 nM	2450 nM	> 100000 nM
COc1ccc(C2CC(=O)C3=C(C2)NC(C)=C(C(=O)OC2CCCC2)C3c2ccc(Cl)cc2Cl)cc1 (centres undefined)	34.7 nM	126 nM	> 100000 nM
O=C(/C=C/c1c[nH]cn1)N1CCC(n2c(CC3CCCC3)nc3cccnc32)CC1	28.7 nM	> 1670 nM	> 10000 nM
C=CCN1C(=O)/C(=C\c2cc(Cl)c(O)c(OC)c2)C(=O)NC1=S	> 1480 nM	2110 nM	> 10000 nM
CCN(CC)CCCC(C)N(Cc1cccc(OCc2ccccc2)c1)C(=O)NCc1ccccc1 (centres undefined)	> 1100 nM	> 1250 nM	> 10000 nM
Cc1ccc(-c2cn3ccccc3[n+]2-c2ccccc2)cc1	817 nM	214 nM	51700 nM
CCCCN(CC)CCNC(=O)c1cc2c(-c3ccc(Cl)cc3)nn(C)c2s1	320 nM	89.8 nM	39800 nM
O=C(c1ccccc1)N1CCN(c2ccccc2NC(=O)C(Cl)(Cl)Cl)CC1	425 nM	538 nM	> 100000 nM
COc1cc(NC(C)CCCN(Cc2ccc(Cl)cc2)C(=O)C(C)C)c2ncccc2c1 (centres undefined)	1120 nM	1680 nM	13200 nM
CN(C)CCN1CCN(c2cccc(-c3cccc4cccnc34)n2)CC1	55.2 nM	18 nM	18800 nM
Cc1cc(C)c2nc(NS(=O)(=O)c3cccc(C(=O)O)c3)sc2c1	1250 nM	693 nM	> 10000 nM
O=C(NCCCCCCCCCCNC(=O)Nc1ccc(C2=NCCCN2)cc1)Nc1ccc(C2=NCCCN2)cc1	69.3 nM	54.2 nM	> 10000 nM
COc1ccccc1C1CC(=O)N2CN(Cc3ccccc3)CSC2=C1C#N (centres undefined)	337 nM	599 nM	> 100000 nM
CC1(C)Oc2ccc(C(=O)N3CCCC3)cc2N(CCc2ccccc2)C1=O	1870 nM	> 1120 nM	> 10000 nM
